Experimental data as given in US9290476B2, “Methylene linked quinolinyl modulators of RORγt” (Janssen Pharmaceutica NV, priority 2012, dated 2016).
Counter-ions that a name gives are not always drawn.

Tests used:
[1] = molecular target: human RORγt LBD (Homo sapiens (Human), UniProt P51449); experiment: RORγt reporter assay (GAL4-RORγt LBD luciferase in HEK293T cells); assay type: cell-based; settings: for RORγt reporter Assay, % inhibition @ 6 μM / IC50: HEK293T cells; for IC50: 24 hours compound treatment; for inhibition at 6 µM: HEK-293T, read-out: RORγt reporter Assay, % inhibition @ 6 μM, HEK293T cells, 6 μM
Sequence of human RORγt LBD (P51449 258-518): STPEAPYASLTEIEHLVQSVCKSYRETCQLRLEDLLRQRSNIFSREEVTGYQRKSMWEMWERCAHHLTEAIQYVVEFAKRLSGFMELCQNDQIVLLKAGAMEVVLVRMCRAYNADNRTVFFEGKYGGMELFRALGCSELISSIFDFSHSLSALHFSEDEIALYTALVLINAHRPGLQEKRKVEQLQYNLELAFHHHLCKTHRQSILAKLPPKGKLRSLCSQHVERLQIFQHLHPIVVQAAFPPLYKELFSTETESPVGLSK
Text: A reporter assay was used to test functional activity of RORγt modulatory compounds on transcriptional activation driven by the RORγt LBD. Cells used in the assay were co-transfected with two constructs. The first construct, pBIND-RORγt LBD, contained the wild type human RORγt LBD fused to the DNA binding domain of the GAL4 protein. The second construct, pGL4.31 (Promega Cat no. C935A), contained multiple GAL4 responsive DNA elements upstream of firefly luciferase. […] The mutant construct was called pBIND-RORγt-AF2.
The pBIND vector contains the GAL4 DNA Binding Domain (GAL4 DBD) and the renilla luciferase gene under control of the SV40 promoter. Renilla luciferase expression serves as a control for transfection efficiency and cell viability.
The reporter assay was performed by transiently transfecting HEK293T cells with 5 ng of pBIND-RORγt LBD or pBIND-RORγt LBD-AF2 and 5 μg pGL4.31 (Promega Cat no. C935A) using Fugene 6 ([…] Cat no. E2691) at a 1:6 ratio of DNA: Fugene 6 in a T-75 flask in which cells were at least 80% confluent. Twenty four hours after bulk transfection, cells were plated into 96-well plates at 50,000 cells/well in phenol-red free DMEM containing 5% Lipid Reduced FCS and Pen/Strep. Six hours after plating, cells were treated with compounds for 24 hours. Media was removed and cells were lysed with 50 μL 1× Glo Lysis Buffer (Promega). Dual Glo Luciferase Reagent (50 μL/well) was then added and firefly luciferase luminescence was read on an Envision after a ten minute incubation. Finally, Stop and Glo reagent (50 μL/well) was added and renilla luciferase luminescence was read on an Envision after a ten minute incubation. To calculate the effect of compounds on RORγt activity, the ratio of firefly to renilla luciferase was determined and plotted against compound concentration. Agonist compounds increase RORγt-driven luciferase expression, and antagonist or inverse agonist compounds decrease luciferase expression.

[2] = molecular target: human RORγt ligand binding domain (RORγt LBD) (Homo sapiens (Human), UniProt P51449); experiment: RORγt ThermoFluor assay (thermal shift binding affinity); settings: estimated from thermal shift
Sequence of human RORγt ligand binding domain (RORγt LBD) (P51449 other isoform, or with tags, fused parts or gaps): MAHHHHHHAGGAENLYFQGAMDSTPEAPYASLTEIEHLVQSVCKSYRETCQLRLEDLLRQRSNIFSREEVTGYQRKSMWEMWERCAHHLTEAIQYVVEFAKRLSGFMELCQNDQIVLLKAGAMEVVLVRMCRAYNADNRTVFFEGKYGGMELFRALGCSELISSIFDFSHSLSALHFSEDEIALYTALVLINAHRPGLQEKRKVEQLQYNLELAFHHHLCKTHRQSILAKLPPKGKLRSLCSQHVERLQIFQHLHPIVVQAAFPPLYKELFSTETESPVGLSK
Protocol: This approach is applicable to a wide variety of systems, and rigorous in theoretical interpretation through quantitation of equilibrium binding constants (KD).
The shift in the melting point described as a ΔTm is proportional to the concentration and affinity of the ligand.
RORγt ThermoFluor® Assay Construct
Protein and compound solutions are dispensed into black 384-well polypropylene PCR microplates (Abgene) and overlayed with silicone oil (1 μL, Fluka, type DC 200) to prevent evaporation.
Bar-coded assay plates are robotically loaded onto a thermostatically controlled PCR-type thermal block and then heated at a typical ramp-rate of 1° C./min for all experiments. Fluorescence was measured by continuous illumination with UV light (Hamamatsu LC6) supplied via fiber optic and filtered through a band-pass filter (380-400 nm; >6 OD cutoff). Fluorescence emission of the entire 384-well plate was detected by measuring light intensity using a CCD camera (Sensys, Roper Scientific) filtered to detect 500±25 nm, resulting in simultaneous and independent readings of all 384 wells. Images were collected at each temperature, and the sum of the pixel intensity in a given area of the assay plate was recorded versus temperature. Reference wells contained RORγt without compounds, and the assay conditions were as follows: • 0.065 mg/mL RORγt • 60 μM 1,8-ANS • 100 mM Hepes, pH 7.0 • 10 mM NaCl • 2.5 mM GSH • 0.002% Tween-20
Project compounds were arranged in a pre-dosed mother plate (Greiner Bio-one) wherein compounds are serially diluted in 100% DMSO by 1:2 from a high concentration of 10 mM over 12 columns within a series (column 12 is a reference well containing DMSO, no compound). The compounds were robotically dispensed directly into assay plates (1×=46 nL) using a Hummingbird capillary liquid handling instrument (Digilab). Following compound dispense, protein and dye in buffer was added to achieve the final assay volume of 3 μL, followed by 1 μL of silicone oil.

Row | Compound | RORγt reporter Assay, % inhibition @ 6 μM [1] [%] | IC50 [1] [µM] | Kd [2] [µM] | inhibition at 6 µM [1] [%]
1 | CCN(CC)c1nc2ccc(C(O)(c3ccc(Cl)cc3)c3cncn3C)cc2c(Cl)c1Cc1ccc(-n2cccn2)cc1 (single isomer, unassigned) [Example 75B, (3-(4-(1H-Pyrazol-1-yl)benzyl)-4-chloro-2-(diethylamino)quinolin-6-yl)(4-chlorophenyl)(1-methyl-1H-imidazol-5-yl)methanol] | 39 | > 6 | 8.6 | –
2 | COc1nc2ccc(C(N)(c3ccc(C)nc3C)c3cnnn3C)cc2c(Cl)c1Cc1ccc(C(F)(F)F)cc1 (single isomer, unassigned) [Example 87B, (4-Chloro-2-methoxy-3-(4-(trifluoromethyl)benzyl)quinolin-6-yl)(2,6-dimethylpyridin-3-yl)(1-methyl-1H-1,2,3-triazol-5-yl)methanamine] | – | 0.85 | 2.3 | 95
3 | Cc1ccc(C(O)(c2ccc3nc(C#N)c(Cc4ccc(C(F)(F)F)cc4)c(C#N)c3c2)c2cnnn2C)c(C)n1 (single isomer, unassigned) [Example 88B, 6-((2,6-Dimethylpyridin-3-yl)(hydroxy)(1-methyl-1H-1,2,3-triazol-5-yl)methyl)-3-(4-(trifluoromethyl)benzyl)quinoline-2,4-dicarbonitrile] | – | 0.14 | 0.029 | 96
4 | OC(c1cccnc1)(c1cccc(Cl)c1)c1ccc2nc(Cl)c(Cc3cccc(Cl)c3)c(Cl)c2c1 (stereo not drawn) [Example 4, (3-Chlorophenyl)-(2,4-dichloro-3-(3-chlorobenzyl)quinolin-6-yl)-(pyridin-3-yl)methanol.TFA] | – | ~6 | 0.0077 | 46
5 | COc1ccc(Cc2c(Cl)nc3ccc(C(O)(c4cccnc4)c4cccc(Cl)c4)cc3c2Cl)cc1 (stereo not drawn) [Example 6, (3-Chlorophenyl)-(2,4-dichloro-3-(4-methoxybenzyl)quinolin-6-yl)-(pyridin-3-yl)methanol.TFA] | – | ~2 | 0.015 | 96
6 | COc1nc2ccc(C(O)(c3cccnc3)c3cccc(Cl)c3)cc2c(Cl)c1Cc1ccc(F)cc1 (stereo not drawn) [Example 7, (4-Chloro-3-(4-fluorobenzyl)-2-methoxyquinolin-6-yl)(3-chlorophenyl)(pyridin-3-yl)methanol] | – | > 6 | 0.04 | 32
7 | OC(c1cccnc1)(c1ccc2nc(Cl)c(Cc3cccc(Cl)c3)cc2c1)c1cncs1 (stereo not drawn) [Example 10] | – | 2.3 | 0.099 | 77
8 | COc1ccc(Cc2c(Cl)nc3ccc(C(O)(c4ccc(Cl)cc4)c4cncn4C)cc3c2Cl)cc1 (stereo not drawn) [Example 12, (4-Chlorophenyl)(2,4-dichloro-3-(4-methoxybenzyl)quinolin-6-yl)(1-methyl-1H-imidazol-5-yl)methanol.TFA] | – | ~7 | 0.016 | 77
9 | COc1ccc(Cc2c(OC)nc3ccc(C(O)(c4ccc(Cl)cc4)c4cncn4C)cc3c2Cl)cc1 (stereo not drawn) [Example 13, (4-Chloro-2-methoxy-3-(4-methoxybenzyl)quinolin-6-yl)(4-chlorophenyl)(1-methyl-1H-imidazol-5-yl)methanol.TFA] | – | ~1 | 0.031 | 70
10 | CCOc1nc2ccc(C(O)(c3ccc(Cl)cc3)c3cncn3C)cc2c(Cl)c1Cc1ccccc1 (stereo not drawn) [Example 14, (3-Benzyl-4-chloro-2-ethoxyquinolin-6-yl)(4-chlorophenyl)(1-methyl-1H-imidazol-5-yl)methanol.TFA] | – | 0.56 | 0.091 | 74
11 | COc1ccc(C(O)(c2ccc3nc(Cl)c(Cc4ccccc4)c(Cl)c3c2)c2cncs2)cn1 (stereo not drawn) [Example 18, (3-Benzyl-2,4-dichloroquinolin-6-yl)(6-methoxypyridin-3-yl)(thiazol-5-yl)methanol] | – | > 6 | 0.0045 | 41
12 | CCOc1nc2ccc(C(O)(c3ccc(OC)nc3)c3cncs3)cc2c(Cl)c1Cc1ccccc1 (stereo not drawn) [Example 19, (3-Benzyl-4-chloro-2-ethoxyquinolin-6-yl)(6-methoxypyridin-3-yl)(thiazol-5-yl)methanol] | – | 6.6 | 0.0027 | 57

Continued, values first:

Row | RORγt reporter Assay, % inhibition @ 6 μM [1] [%] | IC50 [1] [µM] | Kd [2] [µM] | inhibition at 6 µM [1] [%] | Compound
13 | 92 | 3.2 | 3.5 | – | Cn1cncc1C(O)(c1ccc(Cl)cc1)c1ccc2nc(O)c(Cc3ccc(-n4cccn4)cc3)c(Cl)c2c1 (single isomer, unassigned) [Example 55C, 3-(4-(1H-pyrazol-1-yl)benzyl)-4-chloro-6-((4-chlorophenyl)(hydroxy)(1-methyl-1H-imidazol-5-yl)methyl)quinolin-2-ol]
14 | 109 | 0.66 | 0.27 | – | COc1nc2c(F)cc(C(O)(c3ccc(C(F)(F)F)nc3)c3cncn3C)cc2c(Cl)c1Cc1ccc(-n2cccn2)cc1 (single isomer, unassigned) [Example 58C, (3-(4-(1H-pyrazol-1-yl)benzyl)-4-chloro-8-fluoro-2-methoxyquinolin-6-yl)(1-methyl-1H-imidazol-5-yl)(6-(trifluoromethyl)pyridin-3-yl)methanol]
15 | 108 | 0.57 | 0.22 | – | COc1nc2c(OC)cc(C(O)(c3ccc(C(F)(F)F)nc3)c3cncn3C)cc2c(Cl)c1Cc1ccc(-n2cccn2)cc1 (single isomer, unassigned) [Example 59C, (3-(4-(1H-pyrazol-1-yl)benzyl)-4-chloro-2,8-dimethoxyquinolin-6-yl)(1-methyl-1H-imidazol-5-yl)(6-(trifluoromethyl)pyridin-3-yl)methanol]
16 | – | 1 | 1.1 | 101 | Cn1cncc1C(O)(c1ccc(C(F)(F)F)nc1)c1ccc2nc(C#N)c(Cc3ccc(-n4cccn4)cc3)cc2c1 (single isomer, unassigned) [Example 70B, 3-(4-(1H-Pyrazol-1-yl)benzyl)-6-(hydroxy(1-methyl-1H-imidazol-5-yl)(6-(trifluoromethyl)pyridin-3-yl)methyl)quinoline-2-carbonitrile]
17 | 85 | 1.6 | 16 | – | Cn1cncc1C(O)(c1ccc(C(F)(F)F)nc1)c1ccc2nc(C#N)c(Cc3ccc(-n4cccn4)cc3)cc2c1 (single isomer, unassigned) [Example 70C, 3-(4-(1H-Pyrazol-1-yl)benzyl)-6-(hydroxy(1-methyl-1H-imidazol-5-yl)(6-(trifluoromethyl)pyridin-3-yl)methyl)quinoline-2-carbonitrile]
18 | 90 | 0.93 | 21 | – | CCN(CC)c1nc2ccc(C(O)(c3ccc(C(F)(F)F)nc3)c3cncn3C)cc2c(C#N)c1Cc1ccc(-n2cccn2)cc1 (single isomer, unassigned) [Example 74C, 3-(4-(1H-Pyrazol-1-yl)benzyl)-2-(diethylamino)-6-(hydroxy(1-methyl-1H-imidazol-5-yl)(6-(trifluoromethyl)pyridin-3-yl)methyl)quinoline-4-carbonitrile]
19 | – | 0.12 | 0.076 | 102 | COc1nc2ccc(C(O)(c3ccc(C#N)cc3)c3cncn3C)cc2c(C#N)c1Cc1ccc(-n2cccn2)cc1 (single isomer, unassigned) [Example 76B, 3-(4-(1H-Pyrazol-1-yl)benzyl)-6-((4-cyanophenyl)(hydroxy)(1-methyl-1H-imidazol-5-yl)methyl)-2-methoxyquinoline-4-carbonitrile]
